What follows are compounds tested against T1, β-glucocerebrosidase (Homo sapiens, UniProt P04062, L483P) (assay: Enhancement of β-glucocerebrosidase activity measured in Gaucher disease fibroblasts (4-MU-β-D-glucopyranoside substrate, intact cells)). Conditions: GBA fibroblasts bearing L444P (GM08760A, homozygous p.L444P); compound at concentrations between 6 and 50 μM; 4 days incubation.
T1 construct: host or cells: human Gaucher disease patient fibroblasts GM08760A
T1 sequence (P04062 40-536 L483P): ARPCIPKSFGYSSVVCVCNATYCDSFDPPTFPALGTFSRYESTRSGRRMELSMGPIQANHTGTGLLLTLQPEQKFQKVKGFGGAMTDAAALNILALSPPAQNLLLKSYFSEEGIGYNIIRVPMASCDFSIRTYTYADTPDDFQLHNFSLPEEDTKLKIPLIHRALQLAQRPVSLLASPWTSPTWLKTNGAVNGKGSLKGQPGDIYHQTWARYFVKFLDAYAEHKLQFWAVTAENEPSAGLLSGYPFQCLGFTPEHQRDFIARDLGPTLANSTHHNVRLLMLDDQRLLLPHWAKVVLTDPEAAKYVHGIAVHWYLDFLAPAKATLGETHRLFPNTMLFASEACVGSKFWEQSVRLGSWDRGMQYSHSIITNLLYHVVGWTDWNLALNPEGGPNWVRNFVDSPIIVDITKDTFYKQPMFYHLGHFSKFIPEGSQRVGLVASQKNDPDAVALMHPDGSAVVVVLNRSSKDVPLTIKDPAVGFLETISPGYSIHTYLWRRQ
Type: cell-based
How it was run: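 Patient fibroblasts homozygous for p.L444P (GM08760A), grown in DMEM/10% FBS and exposed to compound for 4 days. Intact cells then given 4-MU-β-D-glucopyranoside in 0.1 M acetate pH 4, 1 h, 37 °C; stopped at pH 10.7, 4-MU fluorescence ex 340/em 460. Value is fold increase over untreated cells; binned at 6–50 μM.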

Row | SMILES | Range: increase in enzyme activity in comparison with non-treated cells (Enzyme activity assay for compounds of Examples 33-141)
1 | CN(C(=O)c1cc(N)cc(Nc2ccccc2O)n1)C1Cc2ccccc2C1.Cl [Example 131, 4-Amino-N-(2,3-dihydro-1H-inden-2-yl)-6-((2-hydroxyphenyl)amino)-N-methyl-picolinamide hydrochloride] | C (Increase in comparison with non-treated of 1.2-1.7 fold is shown as C)
2 | Nc1cc(C(=O)N2CCc3ccccc3C2)nc(Nc2ccccc2O)n1 [Example 35, (6-Amino-2-((2-hydroxyphenyl)amino)pyrimidin-4-yl)(3,4-dihydroisoquinolin-2(1H)-yl)methanone] | C (Increase in comparison with non-treated of 1.2-1.7 fold is shown as C)
3 | Nc1nc(Nc2ccccc2O)cc(C(=O)N2CCN(c3ccccc3)CC2)n1 [Example 130, (2-Amino-6-((2-hydroxyphenyl)amino)pyrimidin-4-yl)(4-phenylpiperazin-1-yl)methanone] | C (Increase in comparison with non-treated of 1.2-1.7 fold is shown as C)
4 | Nc1cc(C(=O)N2CCCc3ccccc32)nc(Nc2ccccc2O)n1 [Example 36, (6-Amino-2-((2-hydroxyphenyl)amino)pyrimidin-4-yl)(3,4-dihydroquinolin-1(2H)-yl)methanone] | C (Increase in comparison with non-treated of 1.2-1.7 fold is shown as C)

Source: patent publication US12661342B2, “Heteroaryl compounds and therapeutic uses thereof in conditions associated with the alteration of the activity of beta-glucocerebrosidase” (GT GAIN THERAPEUTICS SA, priority 2019, dated 2026)
